We go through two compounds from patent US11028074B2, “CD73 inhibitors” (Eli Lilly and Company, priority 2018, dated 2021).

As usually defined, the EC50 is the concentration that produces a half-maximal response. In general, IC50 refers to the concentration that gives 50% inhibition.

In assay [1] the target is T1, human CD73 (Homo sapiens, UniProt P21589).
T1 construct: human CD73 (amino acids 1-547); 6-His (C); made in house; host or cells: HEK293F (transient transfection)
T1 sequence (P21589 27-547): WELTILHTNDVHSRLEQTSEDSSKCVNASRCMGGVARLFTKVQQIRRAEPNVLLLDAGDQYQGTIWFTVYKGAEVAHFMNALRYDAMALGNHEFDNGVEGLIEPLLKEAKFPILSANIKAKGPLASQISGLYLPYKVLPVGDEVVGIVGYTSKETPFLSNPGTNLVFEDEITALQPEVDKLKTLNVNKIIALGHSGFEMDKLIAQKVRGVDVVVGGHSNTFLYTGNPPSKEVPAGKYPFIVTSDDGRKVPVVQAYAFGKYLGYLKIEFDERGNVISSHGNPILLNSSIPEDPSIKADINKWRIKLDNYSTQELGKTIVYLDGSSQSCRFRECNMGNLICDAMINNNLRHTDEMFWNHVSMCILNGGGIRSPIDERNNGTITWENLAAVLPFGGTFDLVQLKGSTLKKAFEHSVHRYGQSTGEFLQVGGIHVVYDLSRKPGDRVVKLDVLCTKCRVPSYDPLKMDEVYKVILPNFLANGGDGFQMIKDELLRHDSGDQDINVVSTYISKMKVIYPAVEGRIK
The assay can be described thus: Human CD73 Mechanism Assay. Type of assay: biochemical. Conditions: varying inhibitor and AMP concentrations 0.023 to 50 μM, mixed-model fit.

The target of assay [2] is T2, CD73 (Homo sapiens, UniProt P21589).
T2 sequence (P21589 27-549): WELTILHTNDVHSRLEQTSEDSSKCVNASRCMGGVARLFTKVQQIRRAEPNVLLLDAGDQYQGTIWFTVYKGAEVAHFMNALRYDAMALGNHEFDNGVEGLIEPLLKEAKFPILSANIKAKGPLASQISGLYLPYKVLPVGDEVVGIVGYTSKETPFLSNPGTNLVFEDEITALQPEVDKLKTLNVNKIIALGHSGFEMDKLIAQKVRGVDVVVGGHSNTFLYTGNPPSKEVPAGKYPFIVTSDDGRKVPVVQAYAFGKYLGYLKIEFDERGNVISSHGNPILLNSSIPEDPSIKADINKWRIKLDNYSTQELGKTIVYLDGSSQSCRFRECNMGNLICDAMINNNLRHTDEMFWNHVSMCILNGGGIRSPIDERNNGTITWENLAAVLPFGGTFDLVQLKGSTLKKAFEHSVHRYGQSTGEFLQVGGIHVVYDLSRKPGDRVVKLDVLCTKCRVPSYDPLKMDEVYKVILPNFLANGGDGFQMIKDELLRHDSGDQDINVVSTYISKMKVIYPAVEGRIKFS
The assay can be described thus: LC/MS Based Assay for Measuring CD73 Activity in Human Serum. Conditions: concentrations corrected with the fraction unbound, read-out: EC50, inhibition of CD73 activity in human serum. Further details: from tissue; host or cells: normal human serum. Format: biochemical. As to the method: Fresh normal human blood is centrifuged at 1,500 g for 15 minutes at room temperature, and the upper fraction containing serum is collected. […] After incubation on ice for 60 min, […] (50 uM) is added to each well in the plate, and the plate is incubated at room temperature for 15 min. The plate is then placed on dry ice with addition of 200 uL/well of 17.3 TCA followed by shaking at 26 fps for 3 min with a plate-shaking machine (Qiagen). The plate is then centrifuged at 2940 g for 20 min at 4° C. […] After further centrifugation at 2940 g for 20 min at 4° C., 200 ul/well of the supernatant is used for analysis of ^13C10-^15N5-adenosine, ^13C10-^15N5-inosine and ^15N5-hypoxanthine by LC/MS as described above. For EC50 calculations, the concentrations of the CD73 inhibitor in the serum are corrected with the fraction unbound (%) derived from in silico models or experimentally.

Assay [3] has as its target T2, CD73. The assay can be described thus: Calu6 Human Cell Assay. Conditions: Calu6 cells, 50 μM AMP premix, 60 minutes at room temperature. Type of assay: cell-based. As to the method: The purpose of this assay is to test compounds against CD73 in a cell-based assay. […] Plates are incubated at room temperature for 60 minutes.
Assay [4] addresses T1, human CD73. Put plainly: Human CD73 Biochemical Assay. Conditions: 2 μM AMP, 50 pM CD73 protein, 30 minutes at RT.
Method: An Agilent 300 RapidFire automated extraction system (Agilent, Santa Clara, Calif.) is used with three HPLC quaternary pumps, coupled to an Sciex 6500 triple quadrupole mass spectrometer (AB Sciex, Framingham, Mass.) with an electrospray ionization (ESI) interface source.
Solvent A, used for sample loading and washing, is 50 mM ammonium formate, pH 4.0 containing 5% (v/v) ACN. Solvent B, used for sample elution, is 0.3% formic acid+2% ammonium hydroxide in 70% ACN/30% MeOH. Samples are sequentially analyzed by aspirating 10 μL onto the collection loop under vacuum directly from multiwell plates.
Equip the triple quadrupole mass spectrometer with an electrospray ionization (ESI) source and monitor analytes using selected reaction monitoring (SRM) in positive mode (M+H)+. […] Calculate area ratio values for adenosine and adenosine monophosphate using 13C5 Adenosine and 15N5 AMP as internal standards, respectively.
The purpose of this assay is to identify and characterize inhibitors of CD73 enzyme activity. […] Adenosine- and adenosine ribose-^13C5 (internal standard) levels are determined utilizing mass spectrometry as described above. Use signal ratio (adenosine peak integration/adenosine internal standard peak integration) to quantitate each reaction. […] For screening purposes, test each compound at 50 μM in 1% DMSO.
Assay [5] deals with EG7 (lymphoma), MC38 (colon), AT-3 (breast) and B16F10 (melanoma) tumor cells. Conditions: syngeneic mice injected subcutaneously with EG7, MC38, AT-3 and B16F10 tumor cells; cited from earlier work.

For `CC[C@H]1C[C@@H]1c1cc(-c2c[nH]c(=O)[nH]c2=O)nnc1C` [Example 1, 5-[5-[(1S,2S)-2-Ethylcyclopropyl]-6-methyl-pyridazin-3-yl]-1H-pyrimidine-2,4-dione], the “mechanism of action (type of inhibition)” value on human CD73 [1] is “uncompetitive inhibitor”. For the same compound, the EC50 at CD73 [2] came to 100 nM. The IC50 against CD73 [3] came out at 28 nM; against human CD73 [4], 43 nM.

In the case of `Nc1ncnc2c1ncn2[C@@H]1O[C@H](COP(=O)(O)CP(=O)(O)O)[C@@H](O)[C@H]1O` [α,β-methyleneadenosine 5′-diphosphate], the tumor growth result in assay [5] is “reduce tumor growth”.
